Assay results as given in patent publication US8404619B2, “Particulate plant treatment composition” (Maruo Calcium Company Limited, priority 2005, dated 2013).

How the values were obtained:
Assay type in all cases: in vivo
[1] = tested on: mandarin orange tree (Satsuma mandarin); experiment: preventing peel puffing and improving fruit quality, leaf spray on mandarin orange tree; details: for Fruit skin color: color chart 0 (poorly colored) to 12 (fully colored); for Degree of peel puffing: peel puffing index, 20 fruits, sprayed three times; for Phytotoxicity: scale of 1 to 5; for Sugar content: sugar refractometer; for Acidity: titratable citric acid content
Experimental: (§1) The effects of a quality improver in preventing peel puffing and improving fruit quality were evaluated using a mandarin orange tree (Satsuma mandarin). That is, the quality improver of Example 1 was sprayed on the mandarin orange tree at the polyvalent metal concentrations shown in Table 2 over three times from early September (one-month interval). Each treatment was conducted on each branch by spraying with a backpack sprayer.
The evaluation was carried out on 20 randomly selected fruits. The degree of peel puffing was evaluated by examining cross sections of the fruits based on a 4-point scale (none=0, mild=1, moderate=2, severe=3), and expressed by the following equation: peel puffing index={(1×the number of fruits with mild peel puffing)+(2×the number of fruits with moderate peel puffing)+(3×the number of fruits with severe peel puffing)}×100/(3×the number of fruits examined). The fruit skin color was determined using a color chart based on a scale of 0 (poorly colored) to 12 (fully colored). The sugar content was determined using a sugar refractometer. The acidity was expressed as titratable citric acid content. The dirt on a fruit surface was evaluated by a ratio of the surface area soiled whitish to the total surface area of the fruit on a scale of 1 to 5 (not soiled=1, slightly soiled=2, a little soiled=3, moderately soiled=4, much soiled=5). The phytotoxicity was evaluated on a scale of 1 to 5 (normal=1, slightly damaged=2, a little damaged=3, moderately damaged=4, much damaged=5).
The examinations were carried out in the same manner as in Application Example 1 except that the quality improvers of Examples 2 to 21 and Comparative Examples 1 to 4 were used instead of the quality improver of Example 1.

grape tree (Pione) = experiment: reducing fruit-cracking and improving fruit quality, spray on grape tree
Experimental: as §1, with “reducing fruit-cracking” for “preventing peel puffing”, “grape” for “mandarin orange”, “(Pione).” for “(Satsuma mandarin).”, “8” for “2”, “four” for “three”, “July (two-week” for “September (one-month”
The evaluation was carried out on 20 randomly selected clusters. The number of fruit-cracking was expressed as the number of grains with cracking in a cluster examined. The degree of fruit coloring was expressed using a color chart based on a scale of 0 (poorly colored) to 12 (fully colored). The sugar content was determined using a sugar refractometer. The acidity was expressed as titratable tartaric acid content. The dirt on a fruit surface was evaluated by a ratio of the surface area soiled whitish to the total surface area of the fruit on a scale of 1 to 5 (not soiled=1, slightly soiled=2, a little soiled=3, moderately soiled=4, much soiled=5). The phytotoxicity was evaluated on a scale of 1 to 5 (normal=1, slightly damaged=2, a little damaged=3, moderately damaged=4, much damaged=5).
(§2) The examinations were carried out in the same manner as in Application Example 64 except that the quality improvers of Examples 2 to 4, 6 to 7, 12, 14, 17 to 18, and Comparative Examples 1 to 4 were used instead of the quality improver of Example 1.

[2] = tested on: cherry fruit tree (Satonishiki); experiment: reducing fruit-cracking and improving fruit quality, spray on cherry fruit tree
Experimental: as §1, with “reducing fruit-cracking” for “preventing peel puffing”, “cherry fruit” for “mandarin orange”, “(Satonishiki).” for “(Satsuma mandarin).”, “10” for “2”, “May (two-week” for “September (one-month”
The evaluation was carried out on 50 randomly selected fruits. The incidence of fruit-cracking was expressed as a ratio of the number of fruits with cracking to the total number of fruits examined. The degree of fruit coloring was expressed as the colored area of a fruit. The sugar content was determined using a sugar refractometer. The acidity was expressed as titratable malic acid content. The dirt on a fruit surface was evaluated by a ratio of the surface area soiled whitish to the total surface area of the fruit on a scale of 1 to 5 (not soiled=1, slightly soiled=2, a little soiled=3, moderately soiled=4, much soiled=5). The phytotoxicity was evaluated on a scale of 1 to 5 (normal=1, slightly damaged=2, a little damaged=3, moderately damaged=4, much damaged=5).
as §2

apple tree (Tsugaru) = experiment: preventing sunburn, spray on apple tree
Experimental: The effects of a quality improver in preventing sunburn were evaluated using an apple tree (Tsugaru).
That is, the quality improver of Example 1 was sprayed on the apple tree at the polyvalent metal concentrations shown in Table 12 over three times from early July (two-week interval). Each treatment was conducted on each branch by spraying with a backpack sprayer.
The evaluation was carried out on 50 randomly selected fruits. The incidence of sunburn was expressed as a ratio of the number of fruits with sunburn to the total number of fruits examined. The level of sunburn was expressed on a 4-point scale (none=0, mild=1, moderate=2, severe=3) based on a ratio of the sunburn area to the total surface area of the fruit. The fruit with a sunburn level of 2 or 3 was considered as a seriously damaged fruit. The dirt on a fruit surface was evaluated by a ratio of the surface area soiled whitish to the total surface area of the fruit on a scale of 1 to 5 (not soiled=1, slightly soiled=2, a little soiled=3, moderately soiled=4, much soiled=5). The phytotoxicity was evaluated on a scale of 1 to 5 (normal=1, slightly damaged=2, a little damaged=3, moderately damaged=4, much damaged=5).
The examinations were carried out in the same manner as in Application Example 84 except that the quality improvers of Examples 2 to 4, 6 to 7, 12, 14, 17 to 18, and Comparative Examples 1 to 4 were used instead of the quality improver of Example 1.

Row | SMILES | Fruit skin color ([1]; polyvalent metal 0.030 wt. %) | Fruit skin color ([1]; polyvalent metal 0.075 wt. %) | Degree of peel puffing ([1]; polyvalent metal 0.030 wt. %) | Degree of peel puffing ([1]; polyvalent metal 0.075 wt. %) | Phytotoxicity ([1]; polyvalent metal 0.030 wt. %) | Phytotoxicity ([1]; polyvalent metal 0.075 wt. %) | Sugar content ([1]; polyvalent metal 0.030 wt. %) | Sugar content ([1]; polyvalent metal 0.075 wt. %) | Acidity ([1]; polyvalent metal 0.030 wt. %) | Acidity ([1]; polyvalent metal 0.075 wt. %) | Acidity (grape tree (Pione); polyvalent metal 0.030 wt. %) | Degree of fruit coloring (grape tree (Pione); polyvalent metal 0.030 wt. %) | Number of fruit-cracking (grape tree (Pione); polyvalent metal 0.030 wt. %) | Phytotoxicity (grape tree (Pione); polyvalent metal 0.030 wt. %) | Sugar content (grape tree (Pione); polyvalent metal 0.030 wt. %) | Acidity (grape tree (Pione); polyvalent metal 0.075 wt. %) | Degree of fruit coloring (grape tree (Pione); polyvalent metal 0.075 wt. %) | Number of fruit-cracking (grape tree (Pione); polyvalent metal 0.075 wt. %) | Phytotoxicity (grape tree (Pione); polyvalent metal 0.075 wt. %) | Sugar content (grape tree (Pione); polyvalent metal 0.075 wt. %) | other results
1 | O=C[O-].O=C[O-].[Ca+2] [calcium formate] | 10.0 | 10.4 | 47.5 | 42.5 | 3 | 3 | 10.5 | 11.1 | 0.93 | 0.95 | 0.54 | 9.7 | 3.9 | 3 | 18.9 | 0.53 | 9.7 | 3.6 | 3 | 19.3 | Acidity ([2]; polyvalent metal 0.030 wt. %): 0.63; Degree of fruit coloring ([2]; polyvalent metal 0.030 wt. %): 80.5; Incidence of fruit-cracking ([2]; polyvalent metal 0.030 wt. %): 16.1%; Phytotoxicity ([2]; polyvalent metal 0.030 wt. %): 3; Sugar content ([2]; polyvalent metal 0.030 wt. %): 19.9; Acidity ([2]; polyvalent metal 0.075 wt. %): 0.62; Degree of fruit coloring ([2]; polyvalent metal 0.075 wt. %): 80.3; Incidence of fruit-cracking ([2]; polyvalent metal 0.075 wt. %): 15.6%; Phytotoxicity ([2]; polyvalent metal 0.075 wt. %): 3; Sugar content ([2]; polyvalent metal 0.075 wt. %): 20.2; Incidence of sunburn (apple tree (Tsugaru); polyvalent metal 0.030 wt. %): 10.0%; Phytotoxicity (apple tree (Tsugaru); polyvalent metal 0.030 wt. %): 3; Seriously damaged fruit (apple tree (Tsugaru); polyvalent metal 0.030 wt. %): 6.0%; Incidence of sunburn (apple tree (Tsugaru); polyvalent metal 0.075 wt. %): 10.0%; Phytotoxicity (apple tree (Tsugaru); polyvalent metal 0.075 wt. %): 3; Seriously damaged fruit (apple tree (Tsugaru); polyvalent metal 0.075 wt. %): 6.0%
2 | [Ca+2].[Cl-].[Cl-] [calcium chloride] | 9.5 | 9.9 | 47.0 | 42.0 | 4 | 4 | 10.0 | 10.1 | 1.00 | 0.99 | 0.63 | 9.2 | 4.4 | 4 | 18.4 | 0.66 | 9.0 | 4.5 | 4 | 18.6 | Acidity ([2]; polyvalent metal 0.030 wt. %): 0.64; Degree of fruit coloring ([2]; polyvalent metal 0.030 wt. %): 79.2; Incidence of fruit-cracking ([2]; polyvalent metal 0.030 wt. %): 18.2%; Phytotoxicity ([2]; polyvalent metal 0.030 wt. %): 4; Sugar content ([2]; polyvalent metal 0.030 wt. %): 19.4; Acidity ([2]; polyvalent metal 0.075 wt. %): 0.66; Degree of fruit coloring ([2]; polyvalent metal 0.075 wt. %): 78.4; Incidence of fruit-cracking ([2]; polyvalent metal 0.075 wt. %): 18.5%; Phytotoxicity ([2]; polyvalent metal 0.075 wt. %): 4; Sugar content ([2]; polyvalent metal 0.075 wt. %): 19.2; Incidence of sunburn (apple tree (Tsugaru); polyvalent metal 0.030 wt. %): 10.0%; Phytotoxicity (apple tree (Tsugaru); polyvalent metal 0.030 wt. %): 4; Seriously damaged fruit (apple tree (Tsugaru); polyvalent metal 0.030 wt. %): 8.0%; Incidence of sunburn (apple tree (Tsugaru); polyvalent metal 0.075 wt. %): 12.0%; Phytotoxicity (apple tree (Tsugaru); polyvalent metal 0.075 wt. %): 4; Seriously damaged fruit (apple tree (Tsugaru); polyvalent metal 0.075 wt. %): 8.0%
